The OligoGym collection
Values joined by “and” are separate entries in the source; they are usually repeats but may differ in a detail not shown here. Equal values may be shown once. After the bases stand the sugars from the 5' end (letter, count) and the backbone: PS all phosphorothioate, else s phosphorothioate and o phosphodiester by linkage. Methylation of C is not given here. e = 2'-O-(2-methoxyethyl) (MOE); k = constrained ethyl (cEt); d = 2'-deoxy (DNA)

Target: SOD1
Details: ASO

Row | Sequence | target mRNA inhibition (HepG2, 3 µM) | target mRNA inhibition (HepG2, 4 µM) | target mRNA inhibition (HepG2, 5 µM) | other results
1 | TAACAGATGAGTTAAGG (sugars e2 k2 d9 k2 e2, PS) | 85% | 80% | – | target mRNA inhibition (HepG2, 0.1875 µM): 21%; target mRNA inhibition (HepG2, 0.75 µM): 64%; target mRNA inhibition (HepG2, 12 µM): 96%
2 | TTAATGTTTATCAGGAT (sugars ekekddddddddeeeee, linkages s1 o2 s9 o2 s2) | – | – | – | target mRNA inhibition (A431, 0.062 µM): 6%; target mRNA inhibition (A431, 0.185 µM): 21%; target mRNA inhibition (A431, 0.556 µM): 44%; target mRNA inhibition (A431, 1.667 µM): 76%; target mRNA inhibition (A431, 5 µM): 68%; target mRNA inhibition (A431, 15 µM): 77%; target mRNA inhibition (SH-SY5Y, 0.062 µM): 0%; target mRNA inhibition (SH-SY5Y, 0.185 µM): 0%; target mRNA inhibition (SH-SY5Y, 0.556 µM): 34%; target mRNA inhibition (SH-SY5Y, 1.667 µM): 61%; target mRNA inhibition (SH-SY5Y, 5 µM): 81%; target mRNA inhibition (SH-SY5Y, 15 µM): 90%
3 | TCAGTTTCTCACTACAG (sugars e2 k2 d9 k2 e2, PS) | – | – | 43% | –
4 | AATCTTCCAAGTGATCA (sugars e2 k2 d9 k2 e2, PS) | – | – | 38% | –
5 | TGCCTCTCTTCATCCTT (sugars e3 k2 d7 k2 e3, PS) | 6% | – | – | –
6 | TACAGGGTTTTTATTCA (sugars e2 k2 d9 k2 e2, PS) | – | – | 31% | –
7 | TGTGATTTAAGTCTGGC (sugars e2 k2 d8 k2 e3, PS) | – | – | 45% | –
8 | CATCCAAGGGAATGTTT (sugars e3 k2 d7 k2 e3, PS) | 16% | – | – | –
9 | GTTTAATGTTTATCAG (sugars kekeddddddddekek, linkages s1 o3 s8 o1 s2) | – | – | – | target mRNA inhibition (A431, 0.12 µM): 7%; target mRNA inhibition (A431, 0.6 µM): 7%; target mRNA inhibition (A431, 3 µM): 41%; target mRNA inhibition (A431, 15 µM): 66%; target mRNA inhibition (HepG2, 0.222 µM): 58%; target mRNA inhibition (HepG2, 0.667 µM): 78%; target mRNA inhibition (HepG2, 2 µM): 86%; target mRNA inhibition (HepG2, 6 µM): 94%
10 | ACGACGCAAACCAGCACCCC (sugars e5 d10 e5, PS) | – | 30% | – | –
11 | ATTCACAGGCTTGAATG (sugars e2 k2 d9 k2 e2, PS) | – | – | 29% | –
12 | ACTACATCCAAGGGAAT (sugars e3 k2 d7 k2 e3, PS) | 7% | – | – | –
13 | CATTACTTTCCTTCTGC (sugars e3 k2 d7 k2 e3, PS) | 28% | – | – | –
14 | TTGCCCAAGTCTCCAACATG (sugars e5 d10 e5, PS) | – | – | 41% and 33% | –
15 | TTTCCTTCTGCTCGAAA (sugars e3 k2 d7 k2 e3, PS) | 6% | – | – | –
16 | CAATTACACCACAAGCC (sugars e2 k2 d8 k2 e3, PS) | – | 58% | – | –
17 | CTTTCTTCATTTCCACC (sugars e3 k2 d7 k2 e3, PS) | 11% | – | – | –
18 | CAGCTAGCAGGATAACA (sugars e3 k2 d7 k2 e3, PS) | 21% | – | – | –
19 | CGCCCACTCTGGCCCCA (sugars e3 k2 d7 k2 e3, PS) | 14% | – | – | –
20 | ATCACAGAATCTTCAATAGA (sugars e5 d10 e5, PS) | – | – | 11% and 10% | –
21 | GGCCCACCGTGTTTTCTGGA (sugars e5 d10 e5, PS) | – | – | 46% and 41% | –
22 | GACCACCAGTGTGCGGCCAA (sugars e5 d10 e5, PS) | – | – | 16% | –
23 | TTCACAGGCTTGAATGA (sugars e2 k2 d8 k2 e3, PS) | – | – | 20% | –
24 | CCAATTACACCACAAGC (sugars e2 k2 d9 k2 e2, PS) | 77% | 73% | – | target mRNA inhibition (HepG2, 0.1875 µM): 7%; target mRNA inhibition (HepG2, 0.75 µM): 32%; target mRNA inhibition (HepG2, 12 µM): 96%
25 | ATACATTTCTACAGCTAG (sugars e5 d8 e5, linkages s1 o3 s9 o2 s2) | – | – | – | target mRNA inhibition (A431, 0.12 µM): 9%; target mRNA inhibition (A431, 0.6 µM): 10%; target mRNA inhibition (A431, 3 µM): 27%; target mRNA inhibition (A431, 15 µM): 43%; target mRNA inhibition (HepG2, 0.222 µM): 7%; target mRNA inhibition (HepG2, 0.667 µM): 28%; target mRNA inhibition (HepG2, 2 µM): 54%; target mRNA inhibition (HepG2, 6 µM): 79%

Row | Sequence | target mRNA inhibition (HepG2, 3 µM) | target mRNA inhibition (HepG2, 4 µM) | target mRNA inhibition (HepG2, 5 µM) | other results
26 | CCATTACTTTCCTTCTG (sugars e3 k2 d7 k2 e3, PS) | 37% | – | – | –
27 | GTTTATCAGGATACATT (sugars e2 k2 d8 k2 e3, PS) | 89% | 85% | – | target mRNA inhibition (HepG2, 0.1875 µM): 41%; target mRNA inhibition (HepG2, 0.75 µM): 73%; target mRNA inhibition (HepG2, 12 µM): 92% and 95%
28 | GCTTCCCCACACCTTCA (sugars e3 k2 d7 k2 e3, PS) | 36% | – | – | –
29 | CCAACATGCCTCTCTTC (sugars e3 k2 d7 k2 e3, PS) | 0% | – | – | –
30 | AACTCGCTAGGCCACGCCGA (sugars e5 d10 e5, PS) | – | 44% | – | –
31 | CACTTTTAAGATTACAG (sugars e2 k2 d9 k2 e2, PS) | – | – | 49% | –
32 | AGTGAGATCACAGAATCTTC (sugars e5 d10 e5, PS) | – | – | 30% | –
33 | CTTCCAAGTGATCATAA (sugars e2 k2 d9 k2 e2, PS) | – | – | 54% | –
34 | AACATGCCTCTCTTCAT (sugars e3 k2 d7 k2 e3, PS) | 13% | – | – | –
35 | CTACAGGTACTTTAAAG (sugars e2 k2 d9 k2 e2, PS) | – | – | 16% | –
36 | CAAGTTTAATACCCATC (sugars e2 k2 d8 k2 e3, PS) | – | – | 52% | –
37 | TGGGCGATCCCAATTAC (sugars e2 k2 d8 k2 e3, PS) | – | 19% | – | –
38 | AGGCTTGAATGACAAAGAAA (sugars e5 d10 e5, PS) | – | – | 27% | –
39 | TCATCCTTTGGCCCACC (sugars e3 k2 d7 k2 e3, PS) | 27% | – | – | –
40 | AAGTGAGGACCTGCACT (sugars e3 k2 d7 k2 e3, PS) | 16% | – | – | –
41 | GAATGTTTATTGGGCGA (sugars e3 k2 d7 k2 e3, PS) | 14% | – | – | –
42 | TGACAAGTTTAATACCC (sugars e3 k2 d7 k2 e3, PS) | 27% | – | – | –
43 | TGGATTCTTTTAATAGCCTC (sugars e5 d10 e5, PS) | – | – | 13% | –
44 | CAGTGTTTAATGTTTAT (sugars e2 k2 d8 k2 e3, PS) | 79% | 75% | 77% | target mRNA inhibition (HepG2, 0.1875 µM): 30%; target mRNA inhibition (HepG2, 0.75 µM): 61%; target mRNA inhibition (HepG2, 12 µM): 81% and 87%
45 | TTAATGTTTATCAGGAT (sugars e2 k2 d8 k2 e3, PS) | 90% | 90% | – | target mRNA inhibition (HepG2, 0.1875 µM): 50%; target mRNA inhibition (HepG2, 0.75 µM): 86%; target mRNA inhibition (HepG2, 12 µM): 97%
46 | TTTAATGTTTATCAGG (sugars ekddddddddekekee, linkages s1 o1 s8 o3 s2) | – | – | – | target mRNA inhibition (A431, 0.12 µM): 20%; target mRNA inhibition (A431, 0.6 µM): 5%; target mRNA inhibition (A431, 3 µM): 12%; target mRNA inhibition (A431, 15 µM): 33%; target mRNA inhibition (HepG2, 0.222 µM): 21%; target mRNA inhibition (HepG2, 0.667 µM): 38%; target mRNA inhibition (HepG2, 2 µM): 58%; target mRNA inhibition (HepG2, 6 µM): 81%
47 | CGCTGCAGGAGACTACGACG (sugars e5 d10 e5, PS) | – | 23% | – | –
48 | TGACAAGTTTAATACCC (sugars e2 k2 d9 k2 e2, PS) | – | – | 52% | –
49 | CTGACAAGTTTAATACC (sugars e2 k2 d9 k2 e2, PS) | – | – | 36% | –
50 | ACAAGTTTAATACCCAT (sugars e3 k2 d7 k2 e3, PS) | 23% | – | – | –

Row | Sequence | target mRNA inhibition (HepG2, 3 µM) | target mRNA inhibition (HepG2, 4 µM) | target mRNA inhibition (HepG2, 5 µM) | other results
51 | ATTTCTACAGCTAGCAG (sugars e2 k2 d9 k2 e2, PS) | 77% | 75% | – | target mRNA inhibition (HepG2, 0.1875 µM): 10%; target mRNA inhibition (HepG2, 0.75 µM): 47%; target mRNA inhibition (HepG2, 12 µM): 91%
52 | CGCTAGGCCACGCCGAGGTC (sugars e5 d10 e5, PS) | – | 52% | – | –
53 | AGACTACATCCAAGGGA (sugars e2 k2 d9 k2 e2, PS) | – | 55% | – | –
54 | GTGTGCGGCCAATGATGCAA (sugars e5 d10 e5, PS) | – | – | 15% | –
55 | TATAGGCCAGACCTCCGCGC (sugars e5 d10 e5, PS) | – | 40% | – | –
56 | TAAGTCTGGCAAAATAC (sugars e2 k2 d9 k2 e2, PS) | – | – | 46% | –
57 | GCGACTACTTTATAGGCCAG (sugars e5 d10 e5, PS) | – | 19% | – | –
58 | TGATCATAAATCAGTTT (sugars e2 k2 d8 k2 e3, PS) | – | – | 49% | –
59 | AATCAGTTTCTCACTAC (sugars e2 k2 d9 k2 e2, PS) | – | – | 53% | –
60 | AAAGTCACACAATTACACTT (sugars e5 d10 e5, PS) | – | – | 15% | –
61 | GCACTGGGCCGTCGCCCTTC (sugars e5 d10 e5, PS) | – | 14% | – | –
62 | ATCCAAGGGAATGTTTA (sugars e2 k2 d8 k2 e3, PS) | – | 35% | – | –
63 | TTACACCACAAGCCAAA (sugars e2 k2 d9 k2 e2, PS) | – | 63% | – | –
64 | AGGGTTTTTATTCACAG (sugars e3 k2 d7 k2 e3, PS) | 24% | – | – | –
65 | GCCCTTCAGCACGCACA (sugars e2 k2 d9 k2 e2, PS) | – | 60% | – | –
66 | GGATAACAGATGAGTTA (sugars e3 k2 d7 k2 e3, PS) | 32% | – | – | –
67 | GCCCTTCAGCACGCACA (sugars e2 k2 d8 k2 e3, PS) | 74% | 75% | – | target mRNA inhibition (HepG2, 0.1875 µM): 8%; target mRNA inhibition (HepG2, 0.75 µM): 38%; target mRNA inhibition (HepG2, 12 µM): 96%
68 | TATACAAATCTTCCAAG (sugars e3 k2 d7 k2 e3, PS) | 11% | – | – | –
69 | AGACTACATCCAAGGGA (sugars e2 k2 d8 k2 e3, PS) | – | 53% | – | –
70 | CTACAGCTAGCAGGATA (sugars e2 k2 d9 k2 e2, PS) | 93% | 91% | – | target mRNA inhibition (HepG2, 0.1875 µM): 30%; target mRNA inhibition (HepG2, 0.75 µM): 80%; target mRNA inhibition (HepG2, 12 µM): 97%
71 | AATTACACCACAAGCCA (sugars e3 k2 d7 k2 e3, PS) | 21% | – | – | –
72 | ACAAGTTTAATACCCAT (sugars e2 k2 d9 k2 e2, PS) | – | – | 61% | –
73 | AATTACACCACAAGCCA (sugars e2 k2 d8 k2 e3, PS) | – | 62% | – | –
74 | ACTACATCCAAGGGAAT (sugars e2 k2 d9 k2 e2, PS) | – | 48% | – | –
75 | TCCTTTGGCCCACCGTGTTT (sugars e5 d10 e5, PS) | – | – | 30% and 23% | –
